Measured values published in patent US20250161228A1, “COMPOSITIONS COMPRISING ULTRAFINE BUBBLES AND METHODS OF USING THEREOF IN A METHOD OF PRODUCING AND DELIVERING ACTIVE PHARMACEUTICAL INGREDIENTS AND OTHER DISSOLVED SOLUTES” (Hydrosome IP, LLC, priority 2023, published 2025).

System: Human embryonic kidney (HEK) cells
Assay: Intracellular zinc uptake study, colorimetric assay at 540 nm
Assay type: cell-based
Procedure: Human embryonic kidney (HEK) cells were treated with a composition prepared in accordance with the disclosure, the composition comprising zinc in a Cellular Hydration Water Advanced Zinc Formulation (Zinc Formulation) to test intracellular zinc uptake in vitro. The composition comprised 93 micromolar zinc (II) ions. The HEK cells were treated with compositions comprising 10%, 50%, or 100% Zinc Formulation. Zinc content was measured at 15, 30, 45, and 60 minutes using a colorimetric assay measuring light absorbance at 540 nm. The changes in intracellular zinc content were compared to a control group of HEK cells treated with a ZnSO4 solution.

## O=S(=O)([O-])[O-].[Zn+2] [ZnSO4]
10% composition or its ZnSO4 control, 30 minutes
  increase in intracellular zinc content: 20.4%
50% composition or its ZnSO4 control, 15 minutes
  increase in intracellular zinc content: 42%
50% composition or its ZnSO4 control, 30 minutes
  increase in intracellular zinc content: 29.6%
50% composition or its ZnSO4 control, 60 minutes
  increase in intracellular zinc content: 42.2%
